According to patent publication US20170050957A1, “4-AMINO-6-(HETEROCYCLIC)PICOLINATES AND 6-AMINO-2-(HETEROCYCLIC)PYRIMIDINE-4-CARBOXYLATES AND THEIR USE AS HERBICIDES” (Dow AgroSciences LLC, priority 2013, published 2017):
Like-named read-outs stand apart in the source and are kept apart here.

How the values were obtained:
[1] = system: Key Broadleaf Weed and Crop Species; assay: Post-emergent Test II herbicidal activity (Table 15); type: in vivo; conditions: post-emergence, 336 h, 14 d; for pest or weed control at 35 g/ha: 35 g ai/ha; for pest or weed control at 70 g/ha: 70 g ai/ha; for pest or weed control at 140 g/ha: 140 g ai/ha
How it was run: (§1)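 Visual injury rating (0 = none, 100% = complete kill) made 14 d after treatment, relative to untreated plants. Compounds in an acetone/DMSO/aqueous crop-oil/surfactant spray, at top rate and serial 1/2×-1/16× rates, were applied at 187 L/ha overhead to first-second true leaf plants raised 7-21 d in greenhouse.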

[2] = system: Key Grass and Sedge Weeds as well as Grass Crops; assay: Post-emergent Test II herbicidal activity (Table 16); type: in vivo; conditions: post-emergence, 336 h, 14 d; for pest or weed control at 35 g/ha: 35 g ai/ha; for pest or weed control at 70 g/ha: 70 g ai/ha; for pest or weed control at 140 g/ha: 140 g ai/ha
How it was run: as §1

[3] = Abutilon theophrasti, velvetleaf (Abutilon theophrasti), read-out: Visual Growth Reduction (%) 14 Days After Application, ABUTH
[4] = Amaranthus retroflexus, redroot pigweed (Amaranthus retroflexus), read-out: Visual Growth Reduction (%) 14 Days After Application, AMARE
[5] = Brassica napus, oilseed rape, canola (Brassica napus), read-out: Visual Growth Reduction (%) 14 Days After Application, BRSNN
[6] = Chenopodium album, lambsquarters (Chenopodium album), read-out: Visual Growth Reduction (%) 14 Days After Application, CHEAL
[7] = Euphorbia heterophylla, wild poinsettia (Euphorbia heterophylla), read-out: Visual Growth Reduction (%) 14 Days After Application, EPHHL
[8] = Helianthus annuus, sunflower (Helianthus annuus), read-out: Visual Growth Reduction (%) 14 Days After Application, HELAN
[9] = Cyperus esculentus, yellow nutsedge (Cyperus esculentus), read-out: Visual Growth Reduction (%) 14 Days After Application, CYPES
[10] = Echinochloa crus-galli, barnyardgrass (Echinochloa crus-galli), read-out: Visual Growth Reduction (%) 14 Days After Application, ECHCG
[11] = Oryza sativa, rice (Oryza sativa), read-out: Visual Growth Reduction (%) 14 Days After Application, ORYSA
[12] = Setaria faberi, giant foxtail (Setaria faberi), read-out: Visual Growth Reduction (%) 14 Days After Application, SETFA
[13] = Triticum aestivum, wheat, spring (Triticum aestivum), read-out: Visual Growth Reduction (%) 14 Days After Application, TRZAS
[14] = Zea mays, maize, corn (Zea mays), read-out: Visual Growth Reduction (%) 14 Days After Application, ZEAMX

Compound | pest or weed control at 35 g/ha [1, 3] [%] | pest or weed control at 70 g/ha [1, 3] [%] | pest or weed control at 140 g/ha [1, 3] [%] | pest or weed control at 140 g/ha [1, 4] [%] | pest or weed control at 35 g/ha [1, 5] [%] | pest or weed control at 70 g/ha [1, 5] [%] | pest or weed control at 140 g/ha [1, 5] [%] | pest or weed control at 35 g/ha [1, 6] [%] | pest or weed control at 70 g/ha [1, 6] [%] | pest or weed control at 140 g/ha [1, 6] [%] | pest or weed control at 35 g/ha [1, 7] [%] | pest or weed control at 70 g/ha [1, 7] [%] | pest or weed control at 140 g/ha [1, 7] [%] | pest or weed control at 35 g/ha [1, 8] [%] | pest or weed control at 70 g/ha [1, 8] [%] | pest or weed control at 140 g/ha [1, 8] [%] | pest or weed control at 35 g/ha [2, 9] [%] | pest or weed control at 70 g/ha [2, 9] [%] | pest or weed control at 140 g/ha [2, 9] [%] | pest or weed control at 35 g/ha [2, 10] [%] | further results
COC(=O)c1nc(-c2ccc3ccoc3c2F)cc(N)c1Cl [Compound 2.11] | 95 to 100 | 95 to 100 | 95 to 100 | 95 to 100 | 75 to 84 | 85 to 94 | 95 to 100 | 95 to 100 | 95 to 100 | 95 to 100 | 95 to 100 | 95 to 100 | 95 to 100 | 45 to 59 | 60 to 74 | 75 to 84 | 0 to 29 | 0 to 29 | 30 to 44 | 85 to 94 | pest or weed control at 35 g/ha [1, 4]: 95 to 100%; pest or weed control at 70 g/ha [1, 4]: 95 to 100%; pest or weed control at 70 g/ha [2, 10]: 95 to 100%; pest or weed control at 140 g/ha [2, 10]: 95 to 100%; pest or weed control at 35 g/ha [2, 11]: 0 to 29%; pest or weed control at 70 g/ha [2, 11]: 0 to 29%; pest or weed control at 140 g/ha [2, 11]: 0 to 29%; pest or weed control at 35 g/ha [2, 12]: 45 to 59%; pest or weed control at 70 g/ha [2, 12]: 60 to 74%; pest or weed control at 140 g/ha [2, 12]: 75 to 84%; pest or weed control at 35 g/ha [2, 13]: 0 to 29%; pest or weed control at 70 g/ha [2, 13]: 0 to 29%; pest or weed control at 140 g/ha [2, 13]: 30 to 44%; pest or weed control at 35 g/ha [2, 14]: 45 to 59%; pest or weed control at 70 g/ha [2, 14]: 60 to 74%; pest or weed control at 140 g/ha [2, 14]: 85 to 94%; melting point: 148 °C
COC(=O)c1nc(-c2ccc3c(ccn3C)c2)c(F)c(N)c1Cl [Compound 1.03] | 0 to 29 | 0 to 29 | 75 to 84 | 85 to 94 | 0 to 29 | 0 to 29 | 0 to 29 | 85 to 94 | 85 to 94 | 95 to 100 | 95 to 100 | 95 to 100 | 85 to 94 | 0 to 29 | 0 to 29 | 45 to 59 | 0 to 29 | 0 to 29 | 0 to 29 | 0 to 29 | pest or weed control at 70 g/ha [2, 10]: 0 to 29%; pest or weed control at 140 g/ha [2, 10]: 60 to 74%; pest or weed control at 35 g/ha [2, 11]: 0 to 29%; pest or weed control at 70 g/ha [2, 11]: 0 to 29%; pest or weed control at 140 g/ha [2, 11]: 0 to 29%; pest or weed control at 35 g/ha [2, 12]: 0 to 29%; pest or weed control at 70 g/ha [2, 12]: 0 to 29%; pest or weed control at 140 g/ha [2, 12]: 0 to 29%; pest or weed control at 35 g/ha [2, 13]: 0 to 29%; pest or weed control at 70 g/ha [2, 13]: 0 to 29%; pest or weed control at 140 g/ha [2, 13]: 0 to 29%; pest or weed control at 35 g/ha [2, 14]: 0 to 29%; pest or weed control at 70 g/ha [2, 14]: 0 to 29%; pest or weed control at 140 g/ha [2, 14]: 0 to 29%; melting point: 125 to 127 °C
